In assay [1] the target is T1, hRIPK1 (aa 1-375) fusion protein (Homo sapiens, UniProt Q13546).
T1 construct: hRIPK1 (aa 1-375) fusion protein
T1 sequence (Q13546 1-375): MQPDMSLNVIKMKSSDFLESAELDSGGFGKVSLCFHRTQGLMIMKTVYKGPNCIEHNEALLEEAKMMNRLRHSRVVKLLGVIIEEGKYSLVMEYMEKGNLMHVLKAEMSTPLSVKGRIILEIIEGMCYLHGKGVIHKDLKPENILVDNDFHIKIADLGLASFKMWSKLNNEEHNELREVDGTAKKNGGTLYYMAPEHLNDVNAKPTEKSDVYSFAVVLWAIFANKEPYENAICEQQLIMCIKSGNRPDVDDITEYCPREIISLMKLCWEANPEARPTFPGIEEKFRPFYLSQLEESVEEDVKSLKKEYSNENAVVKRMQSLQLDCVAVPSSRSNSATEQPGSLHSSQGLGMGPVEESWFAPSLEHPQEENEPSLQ
Nature of the assay: ADP-Glo kinase assay: catalytic activity of RIPK1 (autophosphorylation, conversion of ATP to ADP). In kind it is biochemical. The procedure, abridged: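 hRIPK1 (aa 1-375) fusion protein (3.6 μg/ml final) was preincubated 30 min at rt with compound (33300-1.69 nM, 1% DMSO), then 50 μM ATP was added for 240 min at rt. ADP from autophosphorylation was measured by ADP-Glo luminescence and curves fitted by nonlinear regression.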
(ADP-Glo first removes unused ATP, then detects ADP through luciferase.)

In another assay the test system is U937 cells. Nature of the assay: Cellular assay in U937 cells: activity of RIPK1 inhibitors on TNFα/zVAD.fmk-induced cell death (necroptosis), CellTiter 96 AQueous (MTS) readout. In kind it is cell-based. Particulars: Homo sapiens, U-937. The method, boiled down:
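Necroptosis was measured by viable-cell MTS reduction (4 h, absorbance 490 nm) after overnight (18–24 h) 37° C culture. Cell suspensions of U937 cells carried TNFα (100 ng/ml) plus zVAD.fmk (50 μM) before compound was added. A 10-point curve (10 μM–0.26 nM or 1 μM–0.07 nM) was run in duplicate, normalised to the control lacking TNFα/zVAD.fmk.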

Each structure is given as a SMILES string.

In the case of `N#Cc1cncc([C@@H]2CCON2C(=O)[C@H]2CC[C@H](Cn3ccc4ncc(C#N)cc43)CC2)c1` [compound 108, trans-1-((4-((S)-3-(5-cyanopyridin-3-yl)isoxazolidine-2-carbonyl)cyclohexyl)methyl)-1H-pyrrolo[3,2-b]pyridine-6-carbonitrile], the IC50 (commonly the point on the concentration scale where inhibition reaches its midpoint) in assay [1] worked out at 27 nM; with U937 cells, 18 nM.

Turning to `N#Cc1cnc2ccn(C[C@H]3CC[C@H](C(=O)N4OCC[C@H]4c4cc(F)cc(F)c4)CC3)c2c1` [compound 17, trans-1-((4-((S)-3-(3,5-difluorophenyl)isoxazolidine-2-carbonyl)cyclohexyl)methyl)-1H-pyrrolo[3,2-b]pyridine-6-carbonitrile], the IC50 in assay [1] stood at 21 nM; in the assay with U937 cells, 2 nM.

With `CNC(=O)c1cc(F)cc(C[C@H]2CC[C@H](C(=O)N3OCC[C@H]3c3cncc(F)c3)CC2)c1` [compound 160, trans-3-fluoro-5-[[4-[(3S)-3-(5-fluoro-3-pyridyl)isoxazolidine-2-carbonyl]cyclohexyl]methyl]-N-methyl-benzamide], the values for the IC50 (in assay [1]; with U937 cells) were 6 nM and 11 nM, respectively.

With `Cc1c(C#N)cncc1C[C@H]1CC[C@H](C(=O)N2OCC[C@H]2c2cc(F)cc(C#N)c2)CC1` [compound 276, trans-5-[[4-[(3S)-3-(3-cyano-5-fluoro-phenyl)isoxazolidine-2-carbonyl]cyclohexyl]methyl]-4-methyl-pyridine-3-carbonitrile], the IC50 was 20 nM in assay [1] and 9 nM with U937 cells.

`N#Cc1ccc2c(c1)ncn2C[C@H]1CC[C@H](C(=O)N2OCC[C@H]2c2cncc(F)c2)CC1` [compound 6, trans-1-((4-((S)-3-(5-fluoropyridin-3-yl)isoxazolidine-2-carbonyl)cyclohexyl)methyl)-1H-benzo[d]imidazole-5-carbonitrile]: the IC50 in assay [1] amounted to 154 nM; in the assay with U937 cells, 377 nM.

In the case of `Cc1cc([C@@H]2CCON2C(=O)[C@H]2CC[C@H](Cn3ncc4c(F)cc(C#N)cc43)CC2)co1` [compound 44, trans-4-fluoro-1-((4-((S)-3-(5-methylfuran-3-yl)isoxazolidine-2-carbonyl)cyclohexyl)methyl)-1H-indazole-6-carbonitrile], the figures for the IC50 (in assay [1]; with U937 cells) were 17 nM and 2 nM, respectively.

In the case of `O=C([C@H]1CC[C@H](Cn2ccc3cc(F)ccc32)CC1)N1OCC[C@H]1c1cc(F)cc(F)c1` [compound 96, trans-((S)-3-(3,5-difluorophenyl)isoxazolidin-2-yl)(4-((5-fluoro-1H-indol-1-yl)methyl)cyclohexyl)methanone], the IC50 in assay [1] turned out to be 16 nM; in the assay with U937 cells, 2 nM.

For the molecule `NC(=O)c1cc2c(ccn2C[C@H]2CC[C@H](C(=O)N3OCC[C@H]3c3cc(F)cc(F)c3)CC2)cc1F` [compound 77, trans-1-((4-((S)-3-(3,5-difluorophenyl)isoxazolidine-2-carbonyl)cyclohexyl)methyl)-5-fluoro-1H-indole-6-carboxamide], the results for the IC50 (in assay [1]; with U937 cells) were 14 nM and 3 nM, respectively.

As for `CNC(=O)c1ccc(F)c(C[C@H]2CC[C@H](C(=O)N3OCC[C@H]3c3cc(F)cc(C#N)c3)CC2)c1` [compound 177, trans-3-[[4-[(3S)-3-(3-cyano-5-fluoro-phenyl)isoxazolidine-2-carbonyl]cyclohexyl]methyl]-4-fluoro-N-methyl-benzamide], the IC50 came out at 11 nM in assay [1] and 5 nM with U937 cells.

`COc1cc(C[C@H]2CC[C@H](C(=O)N3OCC[C@H]3c3cncc(C)c3)CC2)cn2nc(C)nc12` [compound 383, trans-[4-[(8-methoxy-2-methyl-[1,2,4]triazolo[1,5-a]pyridin-6-yl)methyl]cyclohexyl]-[(3S)-3-(5-methylpyridin-3-yl)-1,2-oxazolidin-2-yl]methanone]: the IC50 is 81 nM in assay [1] and 47 nM with U937 cells.

Turning to `N#Cc1cc(F)cc([C@@H]2CCON2C(=O)[C@H]2CC[C@H](Cn3ncc4ncc(C#N)cc43)CC2)c1` [compound 27, trans-1-((4-((S)-3-(3-cyano-5-fluorophenyl)isoxazolidine-2-carbonyl)cyclohexyl)methyl)-1H-pyrazolo[4,3-b]pyridine-6-carbonitrile], the IC50 in assay [1] is 6 nM; in the assay on U937 cells it was 2 nM.

As for `CNC(=O)c1ccc(F)c(C[C@H]2CC[C@H](C(=O)N3OCC[C@H]3c3cc(F)cc(F)c3)CC2)c1` [compound 174, trans-3-[[4-[(3S)-3-(3,5-difluorophenyl)isoxazolidine-2-carbonyl]cyclohexyl]methyl]-4-fluoro-N-methyl-benzamide], the figures for the IC50 (in assay [1]; in the assay with U937 cells) were 19 nM and 4 nM, respectively.

With `N#Cc1cncc([C@@H]2CCON2C(=O)[C@H]2CC[C@H](Cc3ccc(F)c(C(N)=O)c3)CC2)c1` [compound 194, trans-5-[[4-[(3S)-3-(5-cyano-3-pyridyl)isoxazolidine-2-carbonyl]cyclohexyl]methyl]-2-fluoro-benzamide], the IC50 was 21 nM in assay [1] and 10 nM with U937 cells.

In the case of `N#Cc1cncc([C@@H]2CCON2C(=O)[C@H]2CC[C@H](Cn3cnc4cc(F)c(C#N)cc43)CC2)c1` [compound 64, trans-1-((4-((S)-3-(5-cyanopyridin-3-yl)isoxazolidine-2-carbonyl)cyclohexyl)methyl)-5-fluoro-1H-benzo[d]imidazole-6-carbonitrile], the IC50 in assay [1] was 20 nM; with U937 cells, 47 nM.

`Cc1nc2ccc(C[C@H]3CC[C@H](C(=O)N4OCC[C@H]4c4ccc(F)cc4)CC3)cn2n1` [compound 260, trans-[(3S)-3-(4-fluorophenyl)isoxazolidin-2-yl]-[4-[(2-methyl-[1,2,4]triazolo[1,5-a]pyridin-6-yl)methyl]cyclohexyl]methanone]: the IC50 in assay [1] came to 32 nM; in the assay with U937 cells it was 25 nM.

On to `Cc1nc2c(C)cc(C[C@H]3CC[C@](C)(C(=O)N4OCC[C@H]4c4cnc(C)c(F)c4)CC3)cn2n1` [compound 403, trans-[4-[(2,8-dimethyl-[1,2,4]triazolo[1,5-a]pyridin-6-yl)methyl]-1-methylcyclohexyl]-[(3S)-3-(5-fluoro-6-methylpyridin-3-yl)-1,2-oxazolidin-2-yl]methanone], for which the results for the IC50 (in assay [1]; with U937 cells) were 15 nM and 2 nM, respectively.

For `Cc1nccn1-c1cc(F)cc(C[C@H]2CC[C@H](C(=O)N3OCC[C@H]3c3cnccn3)CC2)c1` [compound 209, trans-[4-[[3-fluoro-5-(2-methylimidazol-1-yl)phenyl]methyl]cyclohexyl]-[(3S)-3-pyrazin-2-ylisoxazolidin-2-yl]methanone], the IC50 in assay [1] worked out at 22 nM; in the assay on U937 cells, 54 nM.

For `O=C([C@H]1CC[C@H](Cc2ccc(CCO)c(F)c2)CC1)N1OCC[C@H]1c1cc(F)cc(F)c1` [compound 280, trans-[(3S)-3-(3,5-difluorophenyl)isoxazolidin-2-yl]-[4-[[3-fluoro-4-(2-hydroxyethyl)phenyl]methyl]cyclohexyl]methanone], the half-inhibitory concentration (IC50) in assay [1] was 13 nM; in the assay on U937 cells, 7 nM.

In the case of `Cc1nc2ccc(C[C@H]3CC[C@H](C(=O)N4OCC[C@H]4c4cc(C#N)ccc4F)CC3)cn2n1` [compound 289, trans-4-fluoro-3-[(3S)-2-[4-[(2-methyl-[1,2,4]triazolo[1,5-a]pyridin-6-yl)methyl]cyclohexanecarbonyl]isoxazolidin-3-yl]benzonitrile], the IC50 stood at 36 nM in assay [1] and 733 nM in the assay with U937 cells.

Regarding `N#Cc1cc(F)cc([C@@H]2CCON2C(=O)[C@H]2C[C@H](Cn3cnc4cc(F)ccc43)C2)c1` [compound 116, trans-3-fluoro-5-((S)-2-(3-((5-fluoro-1H-benzo[d]imidazol-1-yl)methyl)cyclobutane-1-carbonyl)isoxazolidin-3-yl)benzonitrile], the values for the IC50 (in assay [1]; in the assay on U937 cells) were 57 nM and 491 nM, respectively.

In the case of `Cc1ncc(C[C@H]2CC[C@H](C(=O)N3OCC[C@H]3c3cnccn3)CC2)cn1` [compound 346, trans-[4-[(2-methylpyrimidin-5-yl)methyl]cyclohexyl]-[(3S)-3-pyrazin-2-yl-1,2-oxazolidin-2-yl]methanone], the IC50 in assay [1] came to 83 nM; in the assay on U937 cells it was 70 nM.

Turning to `NC(=O)c1cc(C[C@H]2CC[C@H](C(=O)N3OCC[C@H]3c3cc(F)cc(F)c3)CC2)ccc1F` [compound 192, trans-5-[[4-[(3S)-3-(3,5-difluorophenyl)isoxazolidine-2-carbonyl]cyclohexyl]methyl]-2-fluoro-benzamide], the IC50 turned out to be 5 nM in assay [1] and 3 nM in the assay on U937 cells.

In the case of `N#Cc1cc(F)cc([C@@H]2CCON2C(=O)[C@H]2CC[C@H](Cn3ncc4c(F)cc(C#N)cc43)CC2)c1` [compound 32, trans-1-((4-((S)-3-(3-cyano-5-fluorophenyl)isoxazolidine-2-carbonyl)cyclohexyl)methyl)-4-fluoro-1H-indazole-6-carbonitrile], the IC50 in assay [1] is 19 nM; with U937 cells it was 3 nM.

In the case of `Cc1nn(C[C@H]2CC[C@H](C(=O)N3OCC[C@H]3c3cc(F)cc(F)c3)CC2)c2cc(C#N)c(F)cc12` [compound 84], the IC50 amounted to 13 nM in assay [1] and 4 nM in the assay with U937 cells.

These data come from patent publication US20260158009A1 (GENZYME CORPORATION, priority 2023, published 2026).
